Series [1] in a line: In vivo elution: systemic concentration of SN-38 in plasma after embolization, LC/MS/MS. How it is done:
Blood samples were obtained to determine the systemic concentration of SN-38 before embolization as well as 20, 40, 60, 120 and 180 minutes post-embolization. An additional blood sample was collected at sacrifice, which was at day 6. Plasma was prepared by centrifugation and the samples were frozen at −80° C. until analysis.
Quantitation was done via liquid chromatography-tandem mass spectrometry (LC/MS/MS) using an Agilent 1260 Infinity HPLC system coupled with ABSciex 4000 Q Trap LC/MS/MS system. Chromatographic separation was performed using an Agilent Poroshell 120 C18 column (4.6 mm×50 mm, 2.7 μm) at 25° C. and mobile phases consisting of A: 0.1% formic acid in acetonitrile and B: 0.1% formic acid in water. At a flow rate of 1.0 mL/min, the chromatographic gradient was 27% buffer A from 0.0-0.3 min, 27-52% from 0.3-2.5 min, 52-80% from 2.5-2.6 min, 80% from 2.6-2.7 min, 80-27% from 2.7-2.8 min, 27% from 2.9-4.0 min. The plasma samples were precipitated with 3 fold excess (v/v) of acetonitrile containing 50 ppb of the internal standard, camptothecin. After being vortexed and centrifuged at 13,000 rpm at 4° C. for 10 minutes, 200 μL of the supernatant of each sample was diluted with 600 μL of 0.1% formic acid in water. Injection of 100 μL of the diluted sample was performed. The calibration curve was prepared by spiking blank plasma to a range from 2.5-500 ppb for SN-38. […]

Series [2] can be described thus: Solubility of SN-38 in water, observed in the elution extract. It counts as physicochemical. The conditions noted are these: yellow precipitate formed in the extract solution. How it is done: The kinetics of SN-38 elution from the preloaded particles is illustrated in FIG. 1. The theoretical amount of SN-38 tethered on the particles is 15 mg for 100 mg of particles assuming no loss of the drug during the preparation of the particles. Upon immersion in PBS, SN-38 was eluted slowly over a period of time. On day 8, there was approximately 3% of SN-38 eluted. The elution curve obtained is fairly close to a linear line over the period of 8 days with a steady daily release between 3-5% of loaded SN-38 indicating controlled release of SN-38 is achieved with the preloaded particles. The total amount of SN-38 eluted during the first 8 days was 34% of the theoretical amount.

Series [3] can be described thus: In vivo elution: systemic concentration of oxaliplatin in plasma after embolization, LC/MS/MS. Also on record: species or system pig. How it is done: Blood samples were obtained to determine the systemic concentration of oxaliplatin before embolization as well as 20, 40, 60, 120 and 180 minutes post-embolization. An additional blood sample was collected at sacrifice, which was at day 6 or day 7. Plasma was prepared by centrifugation and the samples were frozen at −80° C. until analysis.
Quantitation was done via LC/MS/MS using an Agilent 1260 Infinity HPLC system coupled with ABSciex 4000 Q Trap LC/MS/MS system. Chromatographic separation was performed using an Agilent Poroshell 120 C18 column (4.6 mm×50 mm, 2.7 μm) at 50° C. and mobile phase consisting of A: 0.1% formic acid in acetonitrile and B: 0.1% formic acid in water. At a flow rate of 500 μL/min, the chromatographic gradient was 0% buffer A from 0.0-2.5 min, 0-90% from 2.5-2.6 min, 90% from 2.6-4.1 min, 90-0% from 4.1-4.2 min, and 0% from 4.2-10.0 min. The divert valve was open from 1.4-2.7 min and 3.4-4.6 min. The plasma samples were purified by ultracentrifugation first and then solid phase extraction. Plasma sample, 500 μL, was loaded onto a 30K Nanosep Centrifuge Device and centrifuged to collect the plasma ultra-filtrate. The centrifugation was performed at 4° C., starting at 8,000 rcf for 30 mins, 9,000 rcf for 30 mins, and 10,000 rcf for 15 mins with an increment of 1,000 rcf every 15 mins until 13,000 rcf for 2 hrs and 15 mins. The collected plasma ultra-filtrate was diluted with 1:1 (v/v) ratio of acetonitrile containing 500 ppb of the internal standard, carboplatin. The mixture, 600 μL, was loaded onto a 1 mL HybridSPE-Phospholipid cartridge, which was placed in a 15 mL conical centrifuge tube and centrifuged at 4° C. at 1,000 rcf for 5 mins and then 4,000 rcf for 5 mins. The sample collected in the centrifuge tube was then transferred to an HPLC vial for analysis. Injection of 50 μL of the sample was performed. The calibration curve was prepared by spiking the blank plasma ultra-filtrate to a range from 5-2000 ppb. The systemic concentration of oxalipatin in plasma over time is illustrated in FIG. 3.

Molecules are shown by their SMILES.

This is an account of results in US11617814B2, “Methods of treatment comprising administering polymer particles configured for intravascular delivery of pharmaceutical agents” (TERUMO CORPORATION, priority 2016, dated 2023).

Regarding `CCc1c2c(nc3ccc(O)cc13)-c1cc3c(c(=O)n1C2)COC(=O)[C@]3(O)CC` [SN-38, 7-ethyl-10-hydroxy-camptothecin], the “systemic concentration of SN-38 in plasma” value in series [1] (each time point: pre-embolization, 20, 40, 60, 120, 180 min post-embolization and day 6, calibration 2.5-500 ppb) is given as “lower than the lower limit of quantitation”. For the same compound, in series [1] (post embolization, plasma), the “time of highest systemic concentration of SN-38” value came out at 3 h. Besides, the “solubility of SN-38 in water” value in series [2] is “poor solubility”.

As for `O=C1[O][Pt]2([NH][C@@H]3CCCC[C@H]3[NH]2)[O]C1=O` [oxaliplatin], the “systemic concentration of oxaliplatin in plasma” value in series [3] (each time point: pre-embolization, 20, 40, 60, 120, 180 min post-embolization and day 6 or 7, plasma ultra-filtrate, calibration 5-2000 ppb) is given as “lower than the lower limit of quantitation”. Also, the “systemic concentration of oxaliplatin at day 6” value in series [3] (one sample pig, day 6) is “close to pre-embolization”. For the same compound, the “time of highest systemic concentration of oxaliplatin” value in series [3] (post embolization, one sample pig) was determined as 3 h.
